For experiment [1], the target named is Large T antigen (Simian virus 40, UniProt P03070). It is filed as functional, Betapolyomavirus macacae.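 Note: Confirmatory-stage PubChem screen for compounds that inhibit SV40 T antigen.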
Experiment [2] concerns Vero. The experiment can be described thus: viability of Vero cells under compound – cytotoxicity control for flavivirus capping enzyme inhibitors (AID 588742). In kind it is functional. Conditions: Chlorocebus sabaeus.
The target in experiment [3] is T1, RNA-binding protein pos-1 (Caenorhabditis elegans, UniProt G5EF15).
T1 sequence (G5EF15 whole entry): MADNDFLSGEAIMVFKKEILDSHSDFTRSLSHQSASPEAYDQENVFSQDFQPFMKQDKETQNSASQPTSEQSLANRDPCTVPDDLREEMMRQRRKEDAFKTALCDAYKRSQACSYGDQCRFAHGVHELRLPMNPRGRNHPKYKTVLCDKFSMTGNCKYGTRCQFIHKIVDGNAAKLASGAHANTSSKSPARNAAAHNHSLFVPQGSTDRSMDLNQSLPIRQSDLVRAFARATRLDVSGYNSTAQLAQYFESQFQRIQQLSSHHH
Nature of the experiment: disruptors of C. elegans POS-1 RNA interaction – biochemical, fluorescence polarization, dose response (AID 1964).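 Note: purified POS-1 fused to maltose binding protein made in E. coli; potency of compounds blocking POS-1 binding to fluorescent RNA.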

The target in experiment [4] is T2, Zinc finger protein mex-5 (Caenorhabditis elegans, UniProt Q9XUB2).
T2 sequence (Q9XUB2 whole entry): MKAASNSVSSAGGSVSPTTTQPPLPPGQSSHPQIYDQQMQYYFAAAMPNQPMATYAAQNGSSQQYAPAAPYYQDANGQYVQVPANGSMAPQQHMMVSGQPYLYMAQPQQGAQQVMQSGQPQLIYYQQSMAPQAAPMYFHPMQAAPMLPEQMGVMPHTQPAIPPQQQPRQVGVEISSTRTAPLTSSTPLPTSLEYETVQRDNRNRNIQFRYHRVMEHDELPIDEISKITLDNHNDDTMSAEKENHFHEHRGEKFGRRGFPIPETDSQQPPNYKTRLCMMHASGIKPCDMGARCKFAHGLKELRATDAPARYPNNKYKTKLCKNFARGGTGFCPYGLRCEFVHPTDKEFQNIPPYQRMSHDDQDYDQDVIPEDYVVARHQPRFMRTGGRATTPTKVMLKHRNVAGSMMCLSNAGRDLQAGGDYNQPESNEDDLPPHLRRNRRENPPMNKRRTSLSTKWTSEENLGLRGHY
Nature of the experiment: potency of MEX-5 RNA-binding blockers – biochemical, C. elegans, fluorescence polarization, dose response (AID 1960).

The target in experiment [5] is T3, Microphthalmia-associated transcription factor (Homo sapiens, UniProt O75030).
T3 sequence (O75030 whole entry): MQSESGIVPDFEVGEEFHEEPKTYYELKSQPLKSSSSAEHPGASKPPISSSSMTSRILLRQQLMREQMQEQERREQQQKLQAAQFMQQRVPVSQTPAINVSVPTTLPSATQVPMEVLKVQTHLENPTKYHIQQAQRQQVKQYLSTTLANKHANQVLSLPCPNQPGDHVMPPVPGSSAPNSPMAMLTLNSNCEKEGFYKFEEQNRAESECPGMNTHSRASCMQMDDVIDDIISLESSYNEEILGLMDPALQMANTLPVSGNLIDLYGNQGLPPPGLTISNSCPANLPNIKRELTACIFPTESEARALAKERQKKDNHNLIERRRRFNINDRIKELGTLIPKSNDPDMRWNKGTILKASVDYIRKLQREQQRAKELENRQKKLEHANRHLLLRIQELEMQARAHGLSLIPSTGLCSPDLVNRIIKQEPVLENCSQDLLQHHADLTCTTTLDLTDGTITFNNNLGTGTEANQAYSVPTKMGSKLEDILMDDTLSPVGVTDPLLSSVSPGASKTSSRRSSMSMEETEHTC
The experiment can be described thus: reducers of TRPM1 reporter luminescence, concentration series – cell-based, SK-MEL-5, cherry-picked, set 3, MITF inhibitor project, dose response (AID 493073).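 Note: SK-MEL-5 melanoma cells with luciferase driven by the MITF target TRPM1 promoter.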 It is filed as functional.

For experiment [6], the target named is T4, Replicative DNA helicase DnaB (Mycobacterium tuberculosis, UniProt P9WMR3).
T4 sequence (P9WMR3 whole entry): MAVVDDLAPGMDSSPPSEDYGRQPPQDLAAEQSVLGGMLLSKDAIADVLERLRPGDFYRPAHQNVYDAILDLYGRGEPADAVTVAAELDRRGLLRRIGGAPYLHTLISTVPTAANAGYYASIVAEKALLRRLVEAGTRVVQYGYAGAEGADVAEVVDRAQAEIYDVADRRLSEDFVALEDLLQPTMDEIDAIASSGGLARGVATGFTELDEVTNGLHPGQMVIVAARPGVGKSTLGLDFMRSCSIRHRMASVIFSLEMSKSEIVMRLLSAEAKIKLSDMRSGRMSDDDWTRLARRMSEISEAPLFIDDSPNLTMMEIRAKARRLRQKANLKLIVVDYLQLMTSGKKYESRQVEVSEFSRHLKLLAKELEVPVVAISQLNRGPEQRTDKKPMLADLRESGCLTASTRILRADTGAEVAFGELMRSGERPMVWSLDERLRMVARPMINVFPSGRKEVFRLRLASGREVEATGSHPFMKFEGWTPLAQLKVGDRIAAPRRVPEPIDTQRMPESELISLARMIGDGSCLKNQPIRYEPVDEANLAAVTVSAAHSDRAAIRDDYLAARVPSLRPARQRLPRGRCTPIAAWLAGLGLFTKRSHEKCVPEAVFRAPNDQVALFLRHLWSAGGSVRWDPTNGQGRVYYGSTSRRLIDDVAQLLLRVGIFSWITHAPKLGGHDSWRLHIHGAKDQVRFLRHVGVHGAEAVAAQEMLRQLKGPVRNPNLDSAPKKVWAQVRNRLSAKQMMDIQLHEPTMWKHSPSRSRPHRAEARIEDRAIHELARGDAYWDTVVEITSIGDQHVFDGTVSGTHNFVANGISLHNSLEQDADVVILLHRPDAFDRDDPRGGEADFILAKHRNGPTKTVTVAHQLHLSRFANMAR
Nature of the experiment: DnaB intein splicing inhibitors, dose response, biochemical, cell-free fluorescence (AID 449749). In kind it is functional.

The target of experiment [7] is T5, Protein RecA (Mycobacterium tuberculosis, UniProt P9WHJ3).
T5 sequence (P9WHJ3 whole entry): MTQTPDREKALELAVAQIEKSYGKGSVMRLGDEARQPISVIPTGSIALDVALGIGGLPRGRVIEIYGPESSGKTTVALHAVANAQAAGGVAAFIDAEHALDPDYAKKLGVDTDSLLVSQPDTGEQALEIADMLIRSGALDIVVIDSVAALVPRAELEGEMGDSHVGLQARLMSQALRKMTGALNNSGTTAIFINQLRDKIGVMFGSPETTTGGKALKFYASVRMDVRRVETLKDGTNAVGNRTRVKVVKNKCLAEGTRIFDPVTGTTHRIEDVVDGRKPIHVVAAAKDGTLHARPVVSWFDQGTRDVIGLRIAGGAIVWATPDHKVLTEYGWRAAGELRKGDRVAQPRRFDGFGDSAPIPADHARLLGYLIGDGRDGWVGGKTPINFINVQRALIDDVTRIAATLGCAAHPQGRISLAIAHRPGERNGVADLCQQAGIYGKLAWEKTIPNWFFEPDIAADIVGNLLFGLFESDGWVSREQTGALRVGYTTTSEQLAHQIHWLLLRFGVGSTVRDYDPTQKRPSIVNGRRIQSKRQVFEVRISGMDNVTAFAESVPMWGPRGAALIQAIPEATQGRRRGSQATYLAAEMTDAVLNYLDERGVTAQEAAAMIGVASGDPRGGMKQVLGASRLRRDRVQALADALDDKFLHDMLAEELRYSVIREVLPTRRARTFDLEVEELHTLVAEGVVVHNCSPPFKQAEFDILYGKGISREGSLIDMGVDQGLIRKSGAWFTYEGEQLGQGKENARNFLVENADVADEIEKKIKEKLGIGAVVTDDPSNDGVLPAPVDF
The experiment can be described thus: Fluorescence Cell-Free Homogeneous Dose Retest to Identify Inhibitors of RecA-Intein Splicing Activity. [Related pubchem assays (depositor defined):AID2097, AID2223, AID489010, AID492950]. It is filed as functional.

Experiment [8] addresses Beta-galactosidase (Escherichia coli, UniProt Q8VNN2). Nature of the experiment: detection-enzyme interference by beta-gal modulators – biochemical, E. coli enzyme, set 3, artefact control for CCR6 antagonist project, dose response (AID 504712). It is filed as functional.
Experiment [9] has as its target T6, Cysteine protease ATG4B (Homo sapiens, UniProt Q9Y4P1).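 Note: Fluorescence-based dose-response confirmation assay measuring inhibition of ATG4B activity.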
T6 sequence (Q9Y4P1 whole entry): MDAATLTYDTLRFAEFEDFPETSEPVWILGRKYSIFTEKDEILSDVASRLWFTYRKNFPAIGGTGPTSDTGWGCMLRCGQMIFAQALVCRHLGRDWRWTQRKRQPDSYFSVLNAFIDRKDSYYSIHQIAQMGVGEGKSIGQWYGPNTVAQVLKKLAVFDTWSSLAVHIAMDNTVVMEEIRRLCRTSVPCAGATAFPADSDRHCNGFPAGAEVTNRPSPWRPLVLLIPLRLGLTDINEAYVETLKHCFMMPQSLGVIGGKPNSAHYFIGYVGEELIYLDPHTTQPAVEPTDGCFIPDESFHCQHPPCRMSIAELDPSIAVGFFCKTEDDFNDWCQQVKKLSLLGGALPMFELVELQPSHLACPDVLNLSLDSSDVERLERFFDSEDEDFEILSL
In kind it is functional.

For experiment [10], the target named is Phospholipase A2 (Homo sapiens, UniProt P04054). It is filed as functional.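 Note: confirmatory dose-response counterscreen on phospholipase A2, testing hits that came from an ultra-high-throughput screen for ATG4B inhibitors.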
Sequence of Phospholipase A2 (P04054 whole entry): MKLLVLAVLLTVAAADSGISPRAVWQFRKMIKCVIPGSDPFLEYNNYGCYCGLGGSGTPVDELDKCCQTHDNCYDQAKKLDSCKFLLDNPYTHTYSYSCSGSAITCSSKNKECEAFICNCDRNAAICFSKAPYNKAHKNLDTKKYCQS
The target in experiment [11] is T7, Ubiquitin-conjugating enzyme E2 N (Homo sapiens, UniProt P61088).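 Note: Dose-response confirmation in a TR-FRET assay detecting UBC13-driven polyubiquitin chain formation, inhibition measured.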
T7 sequence (P61088 whole entry): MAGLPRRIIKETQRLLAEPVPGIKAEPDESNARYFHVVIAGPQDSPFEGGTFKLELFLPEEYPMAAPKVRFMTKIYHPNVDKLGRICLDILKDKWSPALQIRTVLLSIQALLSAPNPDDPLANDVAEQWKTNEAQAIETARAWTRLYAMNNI
It is filed as functional.

Experiment [12] addresses T8, DNA repair protein RAD52 homolog (Homo sapiens, UniProt P43351).
T8 sequence (P43351 whole entry): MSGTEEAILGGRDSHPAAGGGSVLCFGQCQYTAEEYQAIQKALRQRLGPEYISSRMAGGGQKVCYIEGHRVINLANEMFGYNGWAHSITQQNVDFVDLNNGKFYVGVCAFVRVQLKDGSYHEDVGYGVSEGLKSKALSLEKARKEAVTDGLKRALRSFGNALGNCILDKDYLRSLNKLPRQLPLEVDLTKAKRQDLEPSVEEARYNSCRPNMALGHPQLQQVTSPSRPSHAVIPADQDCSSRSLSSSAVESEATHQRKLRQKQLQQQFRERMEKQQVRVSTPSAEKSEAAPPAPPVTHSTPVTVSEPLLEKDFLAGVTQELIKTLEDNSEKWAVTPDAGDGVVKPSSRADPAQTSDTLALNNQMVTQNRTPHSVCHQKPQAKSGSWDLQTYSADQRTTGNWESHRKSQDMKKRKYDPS
In kind it is functional, biochemical.

In general, IC50 refers to the midpoint of a concentration-inhibition curve. By CC50 is commonly meant the concentration giving 50% cytotoxicity. A word on the EC50: it is the concentration giving half of the maximal effect. A word on the AC50: it is the concentration at which the activity in the assay is half-maximal.

Active and inactive are the calls of the source.

Sequence of Large T antigen (P03070 whole entry): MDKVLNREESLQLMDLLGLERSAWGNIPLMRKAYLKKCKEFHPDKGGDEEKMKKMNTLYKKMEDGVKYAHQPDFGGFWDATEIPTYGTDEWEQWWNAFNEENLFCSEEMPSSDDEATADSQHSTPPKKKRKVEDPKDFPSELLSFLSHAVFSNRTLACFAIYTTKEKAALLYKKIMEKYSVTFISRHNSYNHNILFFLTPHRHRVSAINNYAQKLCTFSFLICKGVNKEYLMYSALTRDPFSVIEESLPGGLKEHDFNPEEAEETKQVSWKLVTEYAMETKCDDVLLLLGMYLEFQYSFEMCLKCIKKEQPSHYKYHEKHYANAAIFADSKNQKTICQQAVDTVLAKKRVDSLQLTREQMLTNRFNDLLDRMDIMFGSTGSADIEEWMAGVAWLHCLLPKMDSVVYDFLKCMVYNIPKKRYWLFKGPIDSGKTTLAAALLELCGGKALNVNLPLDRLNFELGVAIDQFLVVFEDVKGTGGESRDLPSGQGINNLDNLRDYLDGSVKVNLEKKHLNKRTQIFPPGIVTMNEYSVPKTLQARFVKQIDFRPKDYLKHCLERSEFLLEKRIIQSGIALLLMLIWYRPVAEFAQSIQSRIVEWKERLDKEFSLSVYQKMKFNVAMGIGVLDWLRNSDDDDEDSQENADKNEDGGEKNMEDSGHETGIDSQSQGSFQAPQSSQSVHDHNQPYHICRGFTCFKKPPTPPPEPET
Sequence of Beta-galactosidase (Q8VNN2 whole entry): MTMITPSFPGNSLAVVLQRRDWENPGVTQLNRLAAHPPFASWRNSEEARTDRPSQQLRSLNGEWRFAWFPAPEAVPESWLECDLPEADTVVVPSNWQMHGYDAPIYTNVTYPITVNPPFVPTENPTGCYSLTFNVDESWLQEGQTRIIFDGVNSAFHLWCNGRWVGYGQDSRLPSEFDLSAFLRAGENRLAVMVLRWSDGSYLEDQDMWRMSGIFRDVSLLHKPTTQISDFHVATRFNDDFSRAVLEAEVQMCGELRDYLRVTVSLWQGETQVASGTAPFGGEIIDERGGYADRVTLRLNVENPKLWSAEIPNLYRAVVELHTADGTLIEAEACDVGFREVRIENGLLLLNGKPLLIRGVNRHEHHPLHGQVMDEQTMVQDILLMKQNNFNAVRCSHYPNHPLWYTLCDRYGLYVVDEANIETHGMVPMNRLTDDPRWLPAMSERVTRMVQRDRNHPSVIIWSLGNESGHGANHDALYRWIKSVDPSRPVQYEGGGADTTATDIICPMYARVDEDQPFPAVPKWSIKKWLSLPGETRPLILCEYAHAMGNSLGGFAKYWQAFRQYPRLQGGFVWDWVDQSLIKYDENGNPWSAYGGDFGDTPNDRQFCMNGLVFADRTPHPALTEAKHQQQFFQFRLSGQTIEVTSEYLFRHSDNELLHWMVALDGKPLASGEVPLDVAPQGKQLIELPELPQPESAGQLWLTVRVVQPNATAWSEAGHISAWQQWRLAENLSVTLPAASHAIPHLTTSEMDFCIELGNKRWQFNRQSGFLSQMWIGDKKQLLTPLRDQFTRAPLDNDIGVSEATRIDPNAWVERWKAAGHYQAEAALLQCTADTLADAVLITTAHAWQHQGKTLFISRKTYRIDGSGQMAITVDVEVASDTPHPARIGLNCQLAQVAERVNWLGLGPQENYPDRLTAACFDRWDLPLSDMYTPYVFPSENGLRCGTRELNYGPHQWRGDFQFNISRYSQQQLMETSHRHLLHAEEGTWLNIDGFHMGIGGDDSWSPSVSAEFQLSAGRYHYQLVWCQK

As for `CCOc1c(Br)cc(CNc2ccc(N3CCOCC3)cc2)cc1OC`, the IC50 in experiment [1] was 8.16 µM (active). The CC50 in experiment [2] was > 40 µM (active).

With `COC(=O)c1ccc(-n2c(C)cc(C(=O)CCl)c2C)cc1`, the EC50 in experiment [3] is > 300 µM (not active); in experiment [4], > 300 µM (not active); in experiment [7], 22.7 µM (active). The AC50 in experiment [5] was 7.46 µM (active); in experiment [6], 5.18 µM (active).

In the case of `CCN(CC)CCNC(=S)NC(=O)c1cn(-c2ccccc2)nc1-c1ccc(OC)cc1`, the IC50 in [8] was > 66.6 µM (inactive). Also, the CC50 in experiment [2] was > 40 µM (active).

For `CC(=C\c1ccccc1)/C=C1/SC(=S)N(CCCC(=O)O)C1=O`, the IC50 in experiment [9] is 17.1 µM (active); in [10] it was 34.7 µM (inactive).

As to `COc1cccc(/C=C2/Sc3ccc(C(=O)NCCN4CCCC4)cc3NC2=O)c1`, the IC50 in [11] is > 20 µM (inactive). The AC50 was 17.9 µM (active) in [5] and 4.28 µM (active) in experiment [12].

Values taken from ChEMBL document CHEMBL1201862, “PubChem BioAssay data set” (2004).
